Test results: publication PMC6721765, “Synthesis of Daidzein Glycosides, α-Tocopherol Glycosides, Hesperetin Glycosides by Bioconversion and Their Potential for Anti-Allergic Functional-Foods and Cosmetics” (Molecules, 2019)
Where two headings read alike, the source gives them in different places.

Experiments:
[1] = molecular target: Mushroom tyrosinase (EC 1.14.18.1); assay: Tyrosinase assay (dopachrome formation at 475 nm); format: biochemical; settings: L-DOPA or L-tyrosine as substrate, pH 6.8, 30 °C, mean ± standard deviation from triplicate experiments, read-out: Tyrosinase Inhibitory Activity IC50
Description: Mushroom tyrosinase (EC 1.14.18.1) (Sigma-Aldrich Chemical Co., St. Louis, MO, USA) was used for the tyrosinase assay, with either L-DOPA or L-tyrosine as a substrate. In spectrophotometric experiments, enzyme activity was taken as the initial velocity (Vi) monitored by observing dopachrome formation at 475 nm with a UV spectrophotometer at 30 °C. All samples were dissolved in ethanol at 10 mM. First, 200 μL of a 2.7 mM L-tyrosine or 5.4 mM L-DOPA aqueous solution was mixed with 2687 μL of 0.25 M phosphate buffer (pH 6.8). Next, 100 μL of the sample solution and 13 μL of the same phosphate buffer solution containing mushroom tyrosinase (144 units) were added to the mixture.

[2] = tested on: rat peritoneal mast cells; assay: Inhibition of compound 48/80-induced histamine release from rat peritoneal mast cells; format: cell-based; settings: Mast cell
Description: The %inhibition of hesperetin 3′-β-glucoside (9) and hesperetin 7-β-glucoside (10) was higher than that of hesperetin (8). […] The inhibitory activity toward histamine release of hesperetin 7-β-gentiobioside (12) was stronger than hesperetin diglucoside 11. The anti-allergic activities were examined at pH 7.4 and 37 °C according to the reported methods. The pH and temperature of the reaction mixture may have an effect on anti-allergic activities. Effects of pH and temperature on anti-allergic activities of the obtained glycosides should be investigated and reported on in the near future.
The effects of daidzein, α-tocopherol, hesperetin, and their glycosides on compound 48/80-induced histamine release from rat peritoneal mast cells were examined as follows. Peritoneal mast cells were collected from the abdominal cavities of rats (Male Wistar rats, Nippon SLC) and purified to a level higher than 95%. The purified mast cells were suspended in a physiological buffered solution (PBS) containing 145 mM NaCl, 2.7 mM KCl, 1.0 mM CaCl2, 5.6 mM glucose, and 20 mM 4-(2-hydroxyethyl)-1-piperazineethanesulfonic acid (HEPES) (pH 7.4) to give approximately 10^4 mast cells/mL. Cell viability was always greater than 90% as judged by the trypan blue exclusion test. Mast cells were preincubated with the test compound (1 μM) for 15 min at 37 °C, and subsequently exposed to compound 48/80 at 0.35 μg/mL. Histamine release was determined by a fluorometric assay, and was expressed as a percentage of total histamine.

[3] = test compound 1 μM, preincubated 15 min at 37 °C, pH 7.4, compound 48/80 at 0.35 μg/mL, Male Wistar rat peritoneal mast cells, read-out: Histamine Release-Inhibiting Activity / %inhibition
[4] = Rattus norvegicus, pH 7.4, read-out: Histamine Release-Inhibiting Activity / %inhibition

Compound | IC50 [1] | inhibition at 1 µM [2, 3] | inhibition at 1 µM [2, 4]
O=c1c(-c2ccc(O)cc2)coc2cc(O)ccc12 [Compound 1, daidzein] | 392 ± 88 µM | 58% | –
O=c1c(-c2ccc(O)cc2)coc2cc(OC3OC(CO)C(O)C(O)C3O)ccc12 (stereo not drawn) [Compound 2, daidzein 7-β-glucoside] | 303 ± 45 µM | – | 62%
O=c1c(-c2ccc(O)cc2)coc2cc(O[C@@H]3O[C@H](CO)[C@H](O)[C@H](O)[C@H]3O)ccc12 [Compound 5, daidzein 7-β-galactoside] | 102 ± 39 µM | – | 76%
Cc1c(C)c2c(c(C)c1O)CC[C@@](C)(CCC[C@H](C)CCC[C@H](C)CCCC(C)C)O2 [Compound 6, α-tocopherol] | 510 ± 108 µM | 61% | –
COc1ccc([C@@H]2CC(=O)c3c(O)cc(O)cc3O2)cc1O [Compound 8, hesperetin] | 437 ± 76 µM | 38% | –
COc1ccc(C2CC(=O)c3c(O)cc(O)cc3O2)cc1OC1OC(CO)C(O)C(O)C1O (stereo not drawn) [Compound 9, hesperetin 3′-β-glucoside] | 355 ± 32 µM | 40% | –
O=c1c(O)c(-c2ccc(O)cc2)oc2cc(O)cc(O)c12 [Kaempferol, reference compound] | – | 80% | –

More lines, main results first:

IC50 [1] | Compound | inhibition at 1 µM [2, 3] | inhibition at 1 µM [2, 4]
280 ± 33 µM | O=c1c(-c2ccc(O)cc2)coc2cc(OC3OC(COC4OC(CO)C(O)C(O)C4O)C(O)C(O)C3O)ccc12 (stereo not drawn) [Compound 3, daidzein 7-β-gentiobioside] | 67% | –
125 ± 41 µM | O=c1c(-c2ccc(O[C@@H]3O[C@H](CO)[C@H](O)[C@H](O)[C@H]3O)cc2)coc2cc(O)ccc12 [Compound 4, daidzein 4′-β-galactoside] | 70% | –
54 ± 25 µM | Cc1c(C)c2c(c(C)c1O[C@@H]1O[C@H](CO)[C@H](O)[C@H](O)[C@H]1O)CC[C@@](C)(CCC[C@H](C)CCC[C@H](C)CCCC(C)C)O2 [Compound 7, α-tocopherol 6-β-galactoside] | 82% | –
318 ± 27 µM | COc1ccc(C2CC(=O)c3c(O)cc(OC4OC(CO)C(O)C(O)C4O)cc3O2)cc1O (stereo not drawn) [Compound 10, hesperetin 7-β-glucoside] | 45% | –
176 ± 35 µM | COc1ccc(C2CC(=O)c3c(O)cc(OC4OC(CO)C(O)C(O)C4O)cc3O2)cc1OC1OC(CO)C(O)C(O)C1O (stereo not drawn) [Compound 11, hesperetin 3′,7-β-diglucoside] | 63% | –
139 ± 14 µM | COc1ccc(C2CC(=O)c3c(O)cc(OC4OC(COC5OC(CO)C(O)C(O)C5O)C(O)C(O)C4O)cc3O2)cc1O (stereo not drawn) [Compound 12, hesperetin 7-β-gentiobioside] | 69% | –
